Experimental data as given in patent US8008292B2, “Condensed benzamide compounds and inhibitors of vanilloid receptor subtype 1 (VR1) activity” (Japan Tobacco Inc., priority 2004, dated 2011).
Counter-ions that a name gives are not always drawn.

target: T1, human VR1 (Homo sapiens, UniProt Q8NER1); experiment: Inhibition of Ca2+ entry in cells caused by proton, in rat glioma (C6BU1) cells stably expressing human VR1 (Fura 2 fluorescence); type: cell-based; settings: inhibition of proton-induced Ca2+ entry
T1 construct: expressed in transfected cells
T1 sequence (Q8NER1 whole entry): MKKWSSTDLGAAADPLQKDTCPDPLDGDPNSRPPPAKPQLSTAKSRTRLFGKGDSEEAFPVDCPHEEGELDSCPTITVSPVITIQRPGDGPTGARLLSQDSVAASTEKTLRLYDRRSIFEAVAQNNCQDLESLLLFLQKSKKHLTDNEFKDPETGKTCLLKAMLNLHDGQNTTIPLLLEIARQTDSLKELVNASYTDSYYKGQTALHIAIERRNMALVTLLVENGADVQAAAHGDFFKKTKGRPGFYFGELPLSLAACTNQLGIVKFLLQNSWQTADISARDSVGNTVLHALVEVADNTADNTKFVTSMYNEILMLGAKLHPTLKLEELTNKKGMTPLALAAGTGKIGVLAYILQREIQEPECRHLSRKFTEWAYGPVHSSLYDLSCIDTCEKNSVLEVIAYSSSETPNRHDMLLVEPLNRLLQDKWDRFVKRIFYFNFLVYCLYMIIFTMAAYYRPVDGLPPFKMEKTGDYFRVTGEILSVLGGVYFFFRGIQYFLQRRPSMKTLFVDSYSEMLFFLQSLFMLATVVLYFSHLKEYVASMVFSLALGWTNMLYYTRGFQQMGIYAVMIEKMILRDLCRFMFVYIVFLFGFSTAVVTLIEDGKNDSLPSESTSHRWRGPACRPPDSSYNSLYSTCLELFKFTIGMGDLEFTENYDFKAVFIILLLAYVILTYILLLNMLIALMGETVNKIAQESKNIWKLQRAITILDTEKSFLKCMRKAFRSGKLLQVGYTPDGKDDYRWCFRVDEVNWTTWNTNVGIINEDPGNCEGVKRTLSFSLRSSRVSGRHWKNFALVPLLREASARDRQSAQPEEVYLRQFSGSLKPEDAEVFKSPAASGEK
Method in brief: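 Fura 2-loaded C6BU1 cells in 20 mM MES buffer pH 6.8 with added Ca2+ were preincubated 10 min with compound (final 1 μM to 0.1 nM, 1% DMSO). Proton stimulation brought pH to 5.5. Fluorescence rise was measured, and IC50 was derived from % inhibition versus DMSO control.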

SMILES	IC50
CC(=O)NC[C@H]1COc2c(C(=O)Nc3ccc(C(F)(F)F)cc3)cccc2N1c1ncccc1Cl [Example 1-228]	< 100 nM
O=C(Nc1ccc(C(F)(F)F)cc1)c1cccc2c1OC[C@H](C(=O)O)N2c1ncccc1Cl [Example 1-229]	100 to 1000 nM
NC(=O)[C@H]1COc2c(C(=O)Nc3ccc(C(F)(F)F)cc3)cccc2N1c1ncccc1Cl [Example 1-233]	< 100 nM
CNC(=O)[C@H]1COc2c(C(=O)Nc3ccc(C(F)(F)F)cc3)cccc2N1c1ncccc1Cl [Example 1-234]	< 100 nM
O=C(Nc1ccc2c(c1)OCO2)c1cccc2c1OCCN2c1ncc(CO)cc1Cl [Example 2-01, N-(benzo[1,3]dioxol-5-yl)-4-(3-chloro-5-hydroxymethylpyridin-2-yl)-3,4-dihydro-2H-benzo[1,4]oxazine-8-carboxamide]	100 to 1000 nM
O=C(Nc1ccc(C(F)(F)F)c(F)c1)c1cccc2c1OCCN2c1ncc(CO)cc1Cl [Example 2-06, N-(3-fluoro-4-trifluoromethylphenyl)-4-(3-chloro-5-hydroxymethylpyridin-2-yl)-3,4-dihydro-2H-benzo[1,4]oxazine-8-carboxamide]	< 100 nM
O=C(Nc1ccc(C(F)(F)F)nc1)c1cccc2c1OCCN2c1ncc(CO)cc1Cl [Example 2-16]	< 100 nM
O=C(Nc1ccc(Br)c(Cl)c1)c1cccc2c1OCCN2c1ncc(CO)cc1Cl [Example 2-17]	< 100 nM
CC(C)Oc1ccc(NC(=O)c2cccc3c2OCCN3c2ncc(CO)cc2Cl)cc1C(F)(F)F [Example 2-19]	< 100 nM
O=C(Nc1cnc(Cl)c(Cl)c1)c1cccc2c1OCCN2c1ncc(CO)cc1Cl [Example 2-20]	< 100 nM
O=C(Nc1cc(Cl)c(Cl)c(Cl)c1)c1cccc2c1OCCN2c1ncc(CO)cc1Cl [Example 2-21]	< 100 nM
O=C(Nc1nc2ccc(F)cc2s1)c1cccc2c1OCCN2c1ncc(CO)cc1Cl [Example 2-22]	< 100 nM
O=C(Nc1ccc(Br)c(C(F)(F)F)c1)c1cccc2c1OCCN2c1ncc(CO)cc1Cl [Example 2-23]	< 100 nM
O=C(Nc1cc(F)c(F)c(F)c1)c1cccc2c1OCCN2c1ncc(CO)cc1Cl [Example 2-25]	< 100 nM
O=C(Nc1ccc(F)c([N+](=O)[O-])c1)c1cccc2c1OCCN2c1ncc(CO)cc1Cl [Example 2-26]	100 to 1000 nM
O=C(Nc1cc(C(F)(F)F)cc(C(F)(F)F)c1)c1cccc2c1OCCN2c1ncc(CO)cc1Cl [Example 2-29]	< 100 nM
O=C(Nc1ccc(OCC(F)(F)F)c(Cl)c1)c1cccc2c1OCCN2c1ncc(CO)cc1Cl [Example 2-31]	< 100 nM
CC(C)(C)C1CCC(NC(=O)c2cccc3c2OCCN3c2ncc(CO)cc2Cl)CC1 (stereo not drawn) [Example 2-33]	< 100 nM
CC(C)Oc1ccc(NC(=O)c2cccc3c2OCCN3c2ncc(CO)cc2Cl)cc1F [Example 2-34]	< 100 nM
O=C(Nc1ccc(N2CCCCC2)c(F)c1)c1cccc2c1OCCN2c1ncc(CO)cc1Cl [Example 2-35]	< 100 nM
CC(C)(C)c1ccc(NC(=O)c2cccc3c2OCCN3c2ncc(CO)cc2Cl)cc1 [Example 2-36]	< 100 nM
O=C(Nc1ccc(C(O)(C(F)(F)F)C(F)(F)F)cc1)c1cccc2c1OCCN2c1ncc(CO)cc1Cl [Example 2-37]	< 100 nM
O=C(Nc1ccc2c(c1)OC(F)(F)C(F)(F)O2)c1cccc2c1OCCN2c1ncc(CO)cc1Cl [Example 2-38]	< 100 nM
O=C(Nc1ccc(Cl)c(Cl)c1)c1cccc2c1OCCN2c1ncc(CO)cc1Cl [Example 2-40]	< 100 nM
O=C(Nc1ccc(Br)c(F)c1)c1cccc2c1OCCN2c1ncc(CO)cc1Cl [Example 2-41]	< 100 nM
O=C(Nc1ccc(Br)cc1)c1cccc2c1OCCN2c1ncc(CO)cc1Cl [Example 2-42]	< 100 nM
O=C(Nc1cc(Cl)cc(Cl)c1)c1cccc2c1OCCN2c1ncc(CO)cc1Cl [Example 2-43]	< 100 nM
CC(C)c1ccc(NC(=O)c2cccc3c2OCCN3c2ncc(CO)cc2Cl)cc1 [Example 2-46]	< 100 nM
O=C(Nc1ccc(C(F)(F)F)cc1)c1cccc2c1OC[C@H](CO)N2c1ncccc1Cl [Example 4-04, (S)-4-(3-chloropyridin-2-yl)-3-hydroxylmethyl-N-(4-trifluoromethylphenyl)-3,4-dihydro-2H-benzo[1,4]oxazine-8-carboxamide]	< 100 nM

Next, values leading:

IC50	SMILES
100 to 1000 nM	O=C(OCc1ccccc1)c1cccnc1N1CCOc2c(C(=O)Nc3ccc(OC(F)(F)F)cc3)cccc21 [Example 1-207]
< 100 nM	O=C(Nc1ccc(OC(F)(F)F)cc1)c1cccc2c1OCCN2c1ncccc1OCc1ccccc1 [Example 1-209]
100 to 1000 nM	O=C(Nc1ccc(OC(F)(F)F)cc1)c1cccc2c1OCCN2c1ncccc1O [Example 1-210]
100 to 1000 nM	O=C(Nc1ccc(OC(F)(F)F)cc1)c1cccc2c1OCCN2c1ncccc1OCc1ccccn1 [Example 1-216]
100 to 1000 nM	O=C(Nc1ccc(OC(F)(F)F)cc1)c1cccc2c1OCCN2c1ncccc1OCc1cccnc1 [Example 1-217]
100 to 1000 nM	N#Cc1ccc(N2CCOc3c(C(=O)Nc4ccc(OC(F)(F)F)cc4)cccc32)nc1 [Example 1-218]
< 100 nM	COCc1cnc(N2CCOc3c(C(=O)Nc4ccc(OC(F)(F)F)cc4)cccc32)c(Cl)c1 [Example 1-220]
< 100 nM	NC(=O)c1cnc(N2CCOc3c(C(=O)Nc4ccc(OC(F)(F)F)cc4)cccc32)c(Cl)c1 [Example 1-227]
100 to 1000 nM	O=C(Nc1ccc(OC(F)(F)F)cc1)c1cccc2c1OC(CO)CN2c1ncccc1Cl (stereo not drawn) [Example 1-231]
< 100 nM	O=C(Nc1ccc(OC(F)(F)F)cc1)c1cccc2c1OCCN2c1ncc(CO)cc1Cl [Example 2-03, N-(4-trifluoromethoxyphenyl)-4-(3-chloro-5-hydroxymethylpyridin-2-yl)-3,4-dihydro-2H-benzo[1,4]oxazine-8-carboxamide]
< 100 nM	O=C(Nc1ccc(OC(F)(F)F)c(Cl)c1)c1cccc2c1OCCN2c1ncc(CO)cc1Cl [Example 2-04, N-(3-chloro-4-trifluoromethoxypheny)-4-(3-chloro-5-hydroxymethylpyridin-2-yl)-3,4-dihydro-2H-benzo[1,4]oxazine-8-carboxamide]
< 100 nM	O=C(Nc1ccc(C(F)(F)F)cc1)c1cccc2c1OCCN2c1ncc(CO)cc1Cl [Example 2-05, N-(4-trifluoromethylphenyl)-4-(3-chloro-5-hydroxymethylpyridin-2-yl)-3,4-dihydro-2H-benzo[1,4]oxazine-8-carboxamide]
< 100 nM	O=C(Nc1ccc(C(F)(F)F)cc1)c1cccc2c1OCCN2c1ccc(CO)cn1 [Example 2-07, N-(4-trifluoromethylphenyl)-4-(5-hydroxymethylpyridin-2-yl)-3,4-dihydro-2H-benzo[1,4]oxazine-8-carboxamide hydrochloride]
< 100 nM	CC(C)COc1ccc(NC(=O)c2cccc3c2OCCN3c2ccc(CO)cn2)cc1 [Example 2-08, 4-(5-hydroxymethylpyridin-2-yl)-N-(4-isobutyloxyphenyl)-3,4-dihydro-2H-benzo[1,4]oxazine-8-carboxamide]
< 100 nM	COCc1cnc(N2CCOc3c(C(=O)Nc4ccc(C(F)(F)F)cc4)cccc32)c(Cl)c1 [Example 2-09, 4-(3-chloro-5-methoxymethylpyridin-2-yl)-N-(4-trifluoromethylpheny)-3,4-dihydro-2H-benzo[1,4]oxazine-8-carboxamide]
100 to 1000 nM	O=C(Nc1ccc(OC(F)(F)F)cc1)c1cccc2c1OCCN2c1ncccc1CO [Example 2-11, N-(4-trifluoromethoxyphenyl)-4-(3-hydroxymethylpyridin-2-yl)-3,4-dihydro-2H-benzo[1,4]oxazine-8-carboxamide]
< 100 nM	CC(C)(C)c1ccc(NC(=O)c2cccc3c2OCCN3c2ccc(CO)cn2)cc1 [Example 2-28]
< 100 nM	O=C(Nc1ccc(OCC(F)(F)F)cc1)c1cccc2c1OCCN2c1ncc(CO)cc1Cl [Example 2-30]
< 100 nM	O=C(Nc1ccc(SC(F)(F)F)cc1)c1cccc2c1OCCN2c1ncc(CO)cc1Cl [Example 2-32]
< 100 nM	CC(C)COc1ccc(NC(=O)c2cccc3c2OCCN3c2ncc(CO)cc2Cl)cc1 [Example 2-39]
< 100 nM	O=C(Nc1ccc(OC(F)F)cc1)c1cccc2c1OCCN2c1ncc(CO)cc1Cl [Example 2-44]
< 100 nM	O=C(Nc1ccc(Cl)cc1)c1cccc2c1OCCN2c1ncc(CO)cc1Cl [Example 2-45]
< 100 nM	O=C(Nc1cccc(OC(F)(F)F)c1)c1cccc2c1OCCN2c1ncc(CO)cc1Cl [Example 2-47]
< 100 nM	CC(O)c1cnc(N2CCOc3c(C(=O)Nc4ccc(OC(F)(F)F)cc4)cccc32)c(Cl)c1 (stereo not drawn) [Example 2-48]
100 to 1000 nM	O=C(Nc1ccc(OC(F)(F)F)cc1)c1cccc2c1OC[C@@H](CO)N2c1ncccc1Cl [Example 4-01, (R)-4-(3-chloropyridin-2-yl)-3-hydroxylmethyl-N-(4-trifluoromethoxyphenyl)-3,4-dihydro-2H-benzo[1,4]oxazine-8-carboxamide]
< 100 nM	O=C(Nc1ccc(OC(F)(F)F)cc1)c1cccc2c1OC[C@H](CO)N2c1ncccc1Cl [Example 4-03, (S)-4-(3-chloropyridin-2-yl)-3-hydroxylmethyl-N-(4-trifluoromethoxyphenyl)-3,4-dihydro-2H-benzo[1,4]oxazine-8-carboxamide]
< 100 nM	O=C(Nc1ccc(OC(F)(F)F)cc1)c1cccc2c1OC[C@H](CO)N2c1ccc(Cl)cn1 [Example 4-05, (S)-4-(5-chloropyridin-2-yl)-3-hydroxylmethyl-N-(4-trifluoromethoxyphenyl)-3,4-dihydro-2H-benzo[1,4]oxazine-8-carboxamide]
< 100 nM	O=C(Nc1ccc(C(F)(F)F)cc1)c1cccc2c1OC[C@H](CO)N2c1ccc(Cl)cn1 [Example 4-06, (S)-4-(5-chloropyridin-2-yl)-3-hydroxylmethyl-N-(4-trifluoromethylphenyl)-3,4-dihydro-2H-benzo[1,4]oxazine-8-carboxamide]
